Test results: ChEMBL document CHEMBL1949590, “Discovery of a novel class of orally active trypanocidal N-myristoyltransferase inhibitors” (J Med Chem, 2012)
Activity calls are given as the source filed them. The rule behind the calls is not given here.

Molecular target: T1, Glycylpeptide N-tetradecanoyltransferase 1 (Homo sapiens, UniProt P30419)
T1 sequence (P30419 whole entry): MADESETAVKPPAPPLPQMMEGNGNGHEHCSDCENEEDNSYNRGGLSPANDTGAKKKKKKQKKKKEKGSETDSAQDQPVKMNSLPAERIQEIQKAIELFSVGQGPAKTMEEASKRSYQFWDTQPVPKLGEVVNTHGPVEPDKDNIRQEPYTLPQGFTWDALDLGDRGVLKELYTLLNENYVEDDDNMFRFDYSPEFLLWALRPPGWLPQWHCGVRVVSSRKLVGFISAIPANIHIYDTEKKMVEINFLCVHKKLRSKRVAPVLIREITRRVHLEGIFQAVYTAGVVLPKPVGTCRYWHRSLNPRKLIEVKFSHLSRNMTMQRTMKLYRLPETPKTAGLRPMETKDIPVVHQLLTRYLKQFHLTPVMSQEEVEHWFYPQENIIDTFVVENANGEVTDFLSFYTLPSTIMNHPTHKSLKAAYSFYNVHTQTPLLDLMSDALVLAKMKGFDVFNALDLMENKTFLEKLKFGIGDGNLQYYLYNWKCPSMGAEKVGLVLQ
Conditions: not given

Compared with `Cc1nn(C)c(C)c1NS(=O)(=O)c1ccc(NCc2ccc3[nH]ccc3c2)nc1`, `Cc1nn(C)c(C)c1NS(=O)(=O)c1ccc(NCCCn2ccnc2)nc1` is 3.2-fold higher in IC50: 2.7 µM for the first, 8.7 µM for the second. The first is the more potent here.

First: Cc1nn(C)c(C)c1NS(=O)(=O)c1c(Cl)cc(-c2cccc3cnccc23)cc1Cl
Second: Cc1nn(C)c(C)c1NS(=O)(=O)c1c(Cl)cc(-c2cccc3c2CCNC3)cc1Cl
The IC50 of the first is higher: greater than 100 µM for the first, 4.3 µM for the second.

`Cc1nn(C)c(C)c1NS(=O)(=O)c1ccc(NCCN2CCN(C(C)C)CC2)nc1` and `Cc1nn(C)c(C)c1NS(=O)(=O)c1ccc(NCCCN2CCN(C)CC2)nc1` cannot be ordered by IC50: greater than 1 µM for the first, 2.4 µM for the second.

`Cc1nn(C)c(C)c1NS(=O)(=O)c1ccc(NCCN2CCN(Cc3ccccc3)CC2)nc1` and `Cc1nn(C)c(C)c1NS(=O)(=O)c1ccc(NCCN2CCN(c3ccccc3)CC2)nc1` cannot be ordered by IC50: greater than 10 µM for the first, greater than 1 µM for the second.

Going from `Cc1nn(C)c(C)c1NS(=O)(=O)c1ccc(N2CCC(N3CCNCC3)C2)nc1` (stereo not given) to `Cc1nn(C)c(C)c1NS(=O)(=O)c1ccc(Cl)nc1`, the IC50 rises from 1.6 µM to greater than 100 µM. The first is the more potent here.

First: Cc1nn(C)c(C)c1NS(=O)(=O)c1c(Cl)cc(-c2ccc(CN3CCN(C)CC3)cc2)cc1Cl
Second: Cc1nn(C)c(C)c1NS(=O)(=O)c1ccc(NCCN2CCN(C(=O)OC(C)(C)C)CC2)nc1
The IC50 of the first is lower: 4.2 µM for the first, greater than 10 µM for the second. The first is the more potent here.

Test system: Trypanosoma brucei brucei
Test: Antitrypanosomal activity against Trypanosoma brucei brucei GVR35 infected in NMRI mouse assessed as increase in survival time at 100 mg/kg, po bid administered on day 21 post infection for 5 days after 21 days relative to control
Assay type: functional, organism-based
Design: dose 100 mg/kg
Conditions: not given

For `Cc1nn(C)c(C)c1NS(=O)(=O)c1c(Cl)cc(-c2ccnc(N3CCNCC3)c2)cc1Cl` [listing 1 of 2 here], the Survival was “inactive”.

Test system: not listed separately
Test: Fraction unbound in mouse plasma
Assay type: ADME, cell-free
Conditions: not given

`Cc1nn(C)c(C)c1NS(=O)(=O)c1c(Cl)cc(-c2ccnc(N3CCNCC3)c2)cc1Cl` [listing 2 of 2 here] showed a fraction unbound of 0.11.

Test system: Trypanosoma brucei brucei
Test: Antitrypanosomal activity against Trypanosoma brucei brucei GVR35 infected in NMRI mouse assessed as increase in survival time at 20 mg/kg, ip qd for 5 days measured after 180 days
Assay type: functional
Conditions: route intraperitoneal

`Nc1nc(N)nc(Nc2ccc([As]3SCC(CO)S3)cc2)n1` (stereo not given) [MELARSOPROL] gave a survival at 20 mg/kg of 100%.

Test system: Trypanosoma brucei
Test: Antimicrobial activity against blood stream form Trypanosoma brucei BSF427 expressing VSG118 after 69 hrs by resazurin-based fluorescent assay
Assay type: functional, organism-based
Conditions: BSF427, 69 h

In the case of `Cc1nn(C)c(C)c1NS(=O)(=O)c1c(Cl)cc(-c2ccc(CN3CCN(C)CC3)cc2)cc1Cl`, the EC50 is reported as 3.6 µM.

Test system: not listed separately
Test: Dissociation constant, pKa of the compound
Assay type: physicochemical
Conditions: not given

In order of falling pKa:
1. Cc1nn(C)c(C)c1NS(=O)(=O)c1ccc(NCCC2CCN(C)CC2)nc1  9.6
2. Cc1nn(C)c(C)c1NS(=O)(=O)c1ccc(NCCN2CCNCC2)nc1  9.3
3. Cc1nn(C)c(C)c1NS(=O)(=O)c1ccc(NCCN2CCN(C)CC2)nc1  7.9
4. Cc1nn(C)c(C)c1NS(=O)(=O)c1ccc(NCCCn2ccnc2)nc1  7.1
